Experimental findings from PMC12071706, “Impact of SARS-CoV-2 RBM Mutations N501Y and E484K on ACE2 Binding: A Combined Computational and Experimental Study” (International Journal of Molecular Sciences, 2025) are described below.

The target in this assay is T1, human ACE2 protein (hACE2) (Homo sapiens, UniProt Q9BYF1).
T1 construct: His; purchased AbClonal (Woburn, MA, USA) RP01277; host or cells: HEK293
The assay can be described thus: biochemical. It is filed as binding.

The structures appear in SMILES notation.

T1 sequence (Q9BYF1 18-740): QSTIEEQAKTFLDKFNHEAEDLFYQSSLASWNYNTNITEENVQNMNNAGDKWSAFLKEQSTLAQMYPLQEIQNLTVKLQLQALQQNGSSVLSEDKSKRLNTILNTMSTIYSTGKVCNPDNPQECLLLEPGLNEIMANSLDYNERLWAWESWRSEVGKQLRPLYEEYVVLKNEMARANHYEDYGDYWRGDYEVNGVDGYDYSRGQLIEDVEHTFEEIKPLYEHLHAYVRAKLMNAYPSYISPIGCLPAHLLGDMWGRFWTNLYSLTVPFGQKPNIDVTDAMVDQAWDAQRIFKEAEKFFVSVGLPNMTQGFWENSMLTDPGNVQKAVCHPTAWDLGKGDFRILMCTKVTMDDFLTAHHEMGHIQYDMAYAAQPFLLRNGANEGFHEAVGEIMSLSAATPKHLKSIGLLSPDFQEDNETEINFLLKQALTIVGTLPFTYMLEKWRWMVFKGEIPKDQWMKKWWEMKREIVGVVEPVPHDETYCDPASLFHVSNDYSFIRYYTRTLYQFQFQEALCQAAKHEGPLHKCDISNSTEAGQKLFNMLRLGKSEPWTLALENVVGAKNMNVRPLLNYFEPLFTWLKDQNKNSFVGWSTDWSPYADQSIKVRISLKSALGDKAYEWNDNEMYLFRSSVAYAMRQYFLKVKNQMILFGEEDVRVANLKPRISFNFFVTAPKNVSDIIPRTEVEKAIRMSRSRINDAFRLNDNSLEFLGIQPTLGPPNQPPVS

Consider `CC(=O)NCC(=O)N[C@H](C(=O)N[C@@H](CCCCN)C(=O)NCC(=O)N[C@@H](Cc1ccccc1)C(=O)N[C@@H](CC(N)=O)C(=O)N[C@@H](CS)C(=O)N[C@@H](Cc1ccc(O)cc1)C(=O)N[C@@H](Cc1ccccc1)C(=O)N1CCC[C@H]1C(=O)N[C@@H](CC(C)C)C(=O)N[C@@H](CCC(N)=O)C(=O)N[C@@H](CO)C(=O)N[C@@H](Cc1ccc(O)cc1)C(=O)NCC(=O)N[C@@H](Cc1ccccc1)C(=O)N[C@@H](CCC(N)=O)C(=O)N1CCC[C@H]1C(=O)N[C@H](C(=O)N[C@@H](Cc1ccc(O)cc1)C(=O)NCC(N)=O)[C@@H](C)O)C(C)C` [Beta/Gamma], for which binding was put at a Kd of 310 ± 80 nM.
Regarding `CC(=O)NCC(=O)N[C@H](C(=O)N[C@@H](CCCCN)C(=O)NCC(=O)N[C@@H](Cc1ccccc1)C(=O)N[C@@H](CC(N)=O)C(=O)N[C@@H](CS)C(=O)N[C@@H](Cc1ccc(O)cc1)C(=O)N[C@@H](Cc1ccccc1)C(=O)N1CCC[C@H]1C(=O)N[C@@H](CC(C)C)C(=O)N[C@@H](CCC(N)=O)C(=O)N[C@@H](CO)C(=O)N[C@@H](Cc1ccc(O)cc1)C(=O)NCC(=O)N[C@@H](Cc1ccccc1)C(=O)N[C@@H](CCC(N)=O)C(=O)N1CCC[C@H]1C(=O)N[C@H](C(=O)N[C@@H](CC(N)=O)C(=O)NCC(N)=O)[C@@H](C)O)C(C)C` [Zeta], binding was put at a Kd of 810 ± 60 nM. Also, under “pH 7.4”, the “N (stoichiometry)” value turned out to be 0.76 ± 0.03; the “fold increase in binding affinity” value is 5.8 fold; the “thermodynamic signature (enthalpic vs entropic contribution)” value was “the enthalpic and entropic contributions are of comparable magnitude within the experimental error”; the ΔGITC was -8.31 ± 0.07 kcal/mol. For the same compound, where the note is “pH 7.4”, the ΔHITC is -4.26 ± 0.24 kcal/mol and the “−TΔSITC” value was -4.06 ± 0.25 kcal/mol.
